Converted amounts (≈) assume the structure as drawn.
Experiments:
Type in all cases: cell-based
Salmonella typhimurium = experiment: MIC, agar dilution, Salmonella typhimurium
Experimental: (§1) Stock solution of each test antibiotic compound were prepared to have a concentration of 2 mg. of the test compound per milliliter in sterile water of 0.1M ammonium acetate solution. The amount of each compound used was adjusted for base compound activity as calculated from the purity data for the selected batch of compound.
(§2) The dilution procedure described by Washington and Sutter [Manual of Clinical Microbiology, 3rd, Edit. (Lennett, E. H. et al, Eds.), pp. 453-458 (1980), American Society for Microbiology, Washington, D.C.] was modified so that serial concentrations of 128 to 0.0625 microgram/ml. in sterile water was obtained. Then 1.5 ml. aliquots of these test antibiotic dilution mixtures are added to 13.5 molten (50° C.) Mueller-Hinton agar. Each resulting mixture is poured into 15×100 mm, sterile Petri plates and allowed to dry at room temperature overnight.
(§3) Test bacterial cultures are maintained at -70° C. on glass beads. [See R. J. Yancey, Jr. et al, Amer. Jr. of Vet. Research, 48, No. 7, pp. 1050-1053, (1987)]. At least one bacteria-laden bead per culture is dropped into one ml. of brain heart infusion (BHI) broth for overnight culture at 37° C. in 5% V/V carbon dioxide in air atmosphere.
(§4) On the data of assay, 2 to 8 drops of the bacterial broth cultures are transferred to fresh BHI broth (1 ml.) and the mixture is incubated for 4 to 6 hours at 37° C. in a 5% V/V carbon dioxide in air atmosphere. The resulting cultures are then diluted to match a 0.5 MacFarland standard and further diluted 1:20 V/V with sterile saline solution.
(§5) A 0.001 ml. drop of the resulting mixture, containing approximately 10^3 to 10^4 colony forming units (CFU) of each test bacteria organism, is dispensed onto the surface of the test antibiotic compound test plates with a Steer's type replicator. The resulting innoculated plates are incubated 16 to 18 hours at 37° C. with a carbon dioxide atmosphere.
as §1, with “Stock solutions” for “Stock solution”
as §2, with “mm.” for “mm,”
as §2, with “for Microbiology.” for “for Microbiology,”, “15×100 mm.” for “15×100 mm,”
as §3, with “culture” for “cultures”
(§6) On the day of assay, 2 to 8 drops of the bacterial broth cultures are transferred to fresh BHI broth (1 ml.) and the mixture is incubated for 4 to 6 hours at 37° C. in a 5% V/V carbon dioxide in air atmosphere. […]

Salmonella choleraesuis = experiment: MIC, agar dilution, Salmonella choleraesuis
Experimental: as §1, §2, §3, §4, §5
as §1, with “Stock solutions” for “Stock solution”
as §2, with “mm.” for “mm,”
as §2, with “for Microbiology.” for “for Microbiology,”, “15×100 mm.” for “15×100 mm,”
as §3, with “culture” for “cultures”
as §6

[1] = tested on: Bordetella bronchiseptica; experiment: MIC, agar dilution, Bordetella bronchiseptica; conditions: strain UC6313
Experimental: as §1, §2, §3, §4, §5
as §1, with “Stock solutions” for “Stock solution”
as §2, with “mm.” for “mm,”
as §2, with “for Microbiology.” for “for Microbiology,”, “15×100 mm.” for “15×100 mm,”
as §3, with “culture” for “cultures”
as §6

Pasteurella hemolytica = experiment: MIC (minimum inhibitory concentration), agar dilution, Pasteurella hemolytica
Experimental: as §1, §2, §3, §4, §5
as §1, with “Stock solutions” for “Stock solution”
as §2, with “mm.” for “mm,”
as §2, with “for Microbiology.” for “for Microbiology,”, “15×100 mm.” for “15×100 mm,”
as §3, with “culture” for “cultures”
as §6

Pseudomonas aeruginosa = experiment: MIC, agar dilution, Pseudomonas aeruginosa; conditions: strain ATCC 27853
Experimental: as §1, §2, §3, §4, §5
as §1, with “Stock solutions” for “Stock solution”
as §2, with “mm.” for “mm,”
as §2, with “for Microbiology.” for “for Microbiology,”, “15×100 mm.” for “15×100 mm,”
as §3, with “culture” for “cultures”
as §6

Enterococcus faecium = experiment: MIC, agar dilution, Enterococcus faecium; conditions: strain UC241
Experimental: as §1, with “Stock solutions” for “Stock solution”
as §2, §3, §4, §5, §1
as §2, with “mm.” for “mm,”
as §2, with “for Microbiology.” for “for Microbiology,”, “15×100 mm.” for “15×100 mm,”
as §3, with “culture” for “cultures”
as §6

Enterococcus faecalis = experiment: MIC, agar dilution, Enterococcus faecalis; conditions: strain UC694
Experimental: as §1, with “Stock solutions” for “Stock solution”
as §2, §3, §4, §5, §1
as §2, with “mm.” for “mm,”
as §2, with “for Microbiology.” for “for Microbiology,”, “15×100 mm.” for “15×100 mm,”
as §3, with “culture” for “cultures”
as §6

Micrococcus luteus = experiment: MIC, agar dilution, Micrococcus luteus; conditions: strain UC130
Experimental: as §1, §2, §3, §4, §5
as §1, with “Stock solutions” for “Stock solution”
as §2, with “mm.” for “mm,”
as §2, with “for Microbiology.” for “for Microbiology,”, “15×100 mm.” for “15×100 mm,”
as §3, with “culture” for “cultures”
as §6

[2] = tested on: Streptococcus dysgalactiae; experiment: MIC, agar dilution, Streptococcus dysgalactiae; conditions: strain UC251
Experimental: as §1, §2, §3, §4, §5
as §1, with “Stock solutions” for “Stock solution”
as §2, with “mm.” for “mm,”
as §2, with “for Microbiology.” for “for Microbiology,”, “15×100 mm.” for “15×100 mm,”
as §3, with “culture” for “cultures”
as §6

Staphylococcus aureus = experiment: MIC, agar dilution, Staphylococcus aureus
Experimental: as §1, §2, §3, §4, §5
as §1, with “Stock solutions” for “Stock solution”
as §2, with “mm.” for “mm,”
as §2, with “for Microbiology.” for “for Microbiology,”, “15×100 mm.” for “15×100 mm,”
as §3, with “culture” for “cultures”
as §6

Streptococcus agalactiae = experiment: MIC, agar dilution, Streptococcus agalactiae
Experimental: as §1, §2, §3, §4, §5
as §1, with “Stock solutions” for “Stock solution”
as §2, with “mm.” for “mm,”
as §2, with “for Microbiology.” for “for Microbiology,”, “15×100 mm.” for “15×100 mm,”
as §3, with “culture” for “cultures”
as §6

Pasteurella multocida = experiment: MIC, agar dilution, Pasteurella multocida; conditions: strain UC9581
Experimental: as §1, §2, §3, §4, §5
as §1, with “Stock solutions” for “Stock solution”
as §2, with “mm.” for “mm,”
as §2, with “for Microbiology.” for “for Microbiology,”, “15×100 mm.” for “15×100 mm,”
as §3, with “culture” for “cultures”
as §6

Corynebacterium pyogenes = experiment: MIC, agar dilution, Corynebacterium pyogenes; conditions: strain 213-2
Experimental: as §1, §2, §3, §4, §5
as §1, with “Stock solutions” for “Stock solution”
as §2, with “mm.” for “mm,”
as §2, with “for Microbiology.” for “for Microbiology,”, “15×100 mm.” for “15×100 mm,”
as §3, with “culture” for “cultures”
as §6

Streptococcus uberis = experiment: MIC, agar dilution, Streptococcus uberis
Experimental: as §1, §2, §3, §4, §5
as §1, with “Stock solutions” for “Stock solution”
as §2, with “mm.” for “mm,”
as §2, with “for Microbiology.” for “for Microbiology,”, “15×100 mm.” for “15×100 mm,”
as §3, with “culture” for “cultures”
as §6

Escherichia coli = experiment: MIC, agar dilution, Escherichia coli
Experimental: as §1, §2, §3, §4, §5
as §1, with “Stock solutions” for “Stock solution”
as §2, with “mm.” for “mm,”
as §2, with “for Microbiology.” for “for Microbiology,”, “15×100 mm.” for “15×100 mm,”
as §3, with “culture” for “cultures”
as §6

Streptococcus suis = experiment: MIC, agar dilution, Streptococcus suis; conditions: strain 650-2
Experimental: as §1, §2, §3, §4, §5
as §1, with “Stock solutions” for “Stock solution”
as §2, with “mm.” for “mm,”
as §2, with “for Microbiology.” for “for Microbiology,”, “15×100 mm.” for “15×100 mm,”
as §3, with “culture” for “cultures”
as §6

Streptococcus bovis = experiment: MIC, agar dilution, Streptococcus bovis; conditions: strain UC6281
Experimental: as §1, §2, §3, §4, §5
as §1, with “Stock solutions” for “Stock solution”
as §2, with “mm.” for “mm,”
as §2, with “for Microbiology.” for “for Microbiology,”, “15×100 mm.” for “15×100 mm,”
as §3, with “culture” for “cultures”
as §6

MIC (Salmonella typhimurium; strain UC6162): 8 µg/mL (≈ 16.3 µM) | MIC (Salmonella typhimurium; strain UC6164): 8 µg/mL (≈ 16.3 µM) | MIC [1]: 16 µg/mL (≈ 32.7 µM) | MIC (Pseudomonas aeruginosa): > 32 µg/mL | MIC (Enterococcus faecium): 32 µg/mL (≈ 65.4 µM) | MIC (Enterococcus faecalis): 32 µg/mL (≈ 65.4 µM) | MIC (Micrococcus luteus): 0.5 µg/mL (≈ 1.02 µM) | MIC [2]: ≤ 0.06 µg/mL | MIC (Staphylococcus aureus; strain UC6093): 4 µg/mL (≈ 8.17 µM) | MIC (Staphylococcus aureus; strain UC6097): 2 µg/mL (≈ 4.08 µM) | MIC (Staphylococcus aureus; strain UC9203): 2 µg/mL (≈ 4.08 µM) | MIC (Streptococcus agalactiae; strain UC3947): 2 µg/mL (≈ 4.08 µM) | MIC (Streptococcus agalactiae; strain UC6892): > 32 µg/mL | MIC (Pasteurella multocida): 4 µg/mL (≈ 8.17 µM) | MIC (Corynebacterium pyogenes): 32 µg/mL (≈ 65.4 µM) | MIC (Streptococcus uberis; strain UC3946): 0.25 µg/mL (≈ 0.511 µM) | MIC (Streptococcus uberis; strain UC6159): > 32 µg/mL | MIC (Escherichia coli; strain UC3784): 4 µg/mL (≈ 8.17 µM) | MIC (Escherichia coli; strain UC6720): 8 µg/mL (≈ 16.3 µM) | MIC (Escherichia coli; strain UC9670): 4 µg/mL (≈ 8.17 µM) | MIC (Streptococcus suis): ≤ 0.06 µg/mL | MIC (Streptococcus bovis): > 32 µg/mL
Compound: CCSSCC1=C(C(=O)O)N2C(=O)C(NC(=O)C(=NOC)c3csc(N)n3)C2SC1 (stereo not drawn) [Example 10, 7-[2-(2-amino-1,3-thiazol-4-yl)-2-(methoxyimino)acetamido]-3-ethyldithiomethyl-3-cephem-4-carboxylic acid]
MIC (Salmonella choleraesuis; strain UC6073): 16 µg/mL (≈ 32.7 µM) | MIC (Salmonella choleraesuis; strain UC6077): 32 µg/mL (≈ 65.4 µM) | MIC (Pasteurella hemolytica; strain UC6531): 0.25 µg/mL (≈ 0.511 µM) | MIC (Pasteurella hemolytica; strain UC6532): 0.25 µg/mL (≈ 0.511 µM) | MIC (Pasteurella hemolytica; strain UC9582): 0.5 µg/mL (≈ 1.02 µM)

Reference: patent US5134137A, “Cephalosporin antibiotics” (The Upjohn Company, priority 1990, dated 1992)
